Experimental findings from US20110152169A1, “SPARC ANTI-INFLAMMATORY ACTIVITY AND USES THEREOF” (priority 2008, published 2011) are described below.

Assay type in all cases: cell-based, human
One assay deals with 8-isoprostane. Kind of assay: 8-isoprostane level in conditioned medium, enzyme immunoassay.
For the next assay, the system named is PGE2. Kind of assay: PGE2 level in conditioned medium, enzyme immunoassay.
Another assay concerns MMP-2 and MMP-9. Kind of assay: Gelatin zymography of conditioned media.
A further assay concerns MCP-1. The assay can be described thus: MCP-1 protein secreted in conditioned medium, ELISA. To be noted: 50 μM LPA.
Another assay has as its system uPA. Kind of assay: uPA activity in conditioned medium, colorimetric assay. Particulars: for inhibition of LPA-induced uPA activity: 24 hours.
The next assay relates to NF-κB promoter. Kind of assay: NF-κB promoter luciferase reporter assay. To be noted: SKOV3 and OVCAR3, concentration-dependent up to 5 nM.
Assay [1] relates to OVCAR3. Kind of assay: Matrigel invasion assay. As for the experimental part:
(§1) The invasiveness of SKOV3 and OVCAR3 transduced or not with Ad-GFP or Ad-GFP-SPARC as described in Example 1, in response to MCP-1, was assessed as previously described (Said et al., Am J Pathol, 167: 1739-52 (2005)). 1×10^5 cells per […] in the presence and absence of MCP-lwere added to the upper chamber of polycarbonate inserts ([…] pore size, Corning Costar, Corning, N.Y.) coated on ice with Growth factor—reduced Matrigel (BD Biosciences, Bedford, Mass.) diluted 1:3 in SFM. In some experiments, cells were pretreated with MCP-1 antibody (25 µg/ml) or its isotype control (50 μg/ml) for 30 minutes before stimulation. The bottom chambers contained complete growth medium. […] The migrated cells were counted in six fields after staining with hemacolor 3 stain (SOURCE?), using an inverted microscope equipped with a DFC 320 digital camera (Leica Microsystems, Wetzlar, Germany) under 200× magnification.
(§2) The proliferation and invasiveness of SKOV3 and OVCAR3 cells, transduced or not with Ad-GFP and Ad-GFP-SPARC, in response to PGE2, was determined as described in Example 3. The results shown in FIG. 5 are expressed as the mean±SEM of three independent experiments performed in quadruplicate (proliferation) or triplicate (invasion). *P<0.05, compared to the matched WT cells or Ad-GFP transduced cells. **P<0.05, compared to NS control cells.

In assay [2] the test system is SKOV3. The assay can be described thus: Matrigel invasion assay. As for the experimental part:
as §1, §2

The test system of assay [3] is OVCAR3. Kind of assay: Proliferation, CellTiter96 (MTS). As for the experimental part: (§3) The proliferation of SKOV3 and OVCAR3 transduced or not with Ad-GFP or Ad-GFP-SPARC as described in Example 1, in response to MCP-1, was assessed using a commercially available CellTiter96 kit (Promega) according to the manufacturer' instructions. The number of proliferating cells was determined colorimetrically by measuring the absorbance at 590 nm (0D590) of the dissolved formazan product after the addition of 3 -(4,5 -dimethylthiazol-2-yl)-5-(3 -carboxymethoxyphenyl)-2-(4-sulfophenyl)-2H-tetrazolium (MTS) for 3 hours.
as §2

Assay [4] has as its system SKOV3. Kind of assay: Proliferation, CellTiter96 (MTS). How it is done:
as §3, §2

For another assay, the system named is IL-6. Kind of assay: IL-6 in conditioned medium, ELISA. To be noted: U937. As for the experimental part:
SKOV3 and OVCAR3 cells, transduced or not with Ad-GFP or Ad-GFP-SPARC, and U937 cells were cultured individually, in cocultures, or in triple cultures with Meso301 cells for twenty four hours, and the conditioned medium was assayed for IL-6 by ELISA as described in Example 1. The results shown in FIG. 3 represent the mean±SEM of one of three independent experiments, each performed in duplicate. *P<0.05, compared to matched WT or Ad-GFP. **P<0.05, compared to double cultures in the absence of mesothelial cells.

The mark [5] stands for this setting: either cell line (SKOV3, OVCAR3).

Experimental for 8-isoprostane: SKOV3 and OVCAR3 were treated as described in Example 6, and the level of 8-isoprostane was determined in the CM using a commercially available enzyme immunoassay kit (Cayman Inc.) according to the manufacturer's instructions.
Experimental for MCP-1: Ovarian cancer cell lines were transduced for 24 hours with adenovirus expressing GFP (Ad-GFP) or adenovirus expressing GFP and SPARC (Ad-GFP-SPARC) in complete growth medium at a multiplicity of infection of 15 to 25 as described previously (Said et al., Am J Pathol, 170: 1054-63 (2007)).
Confluent monolayers (−106 cells, serum starved overnight) of wild type (WT) human ovarian cancer cell lines SKOV3 or OVCAR3, were stimulated with 50 μM lysophosphatidic acid (LPA) for 24 hours in the presence and absence of SPARC (10 μg/ml). Similarly, adenovirus-transduced SKOV3 and OVCAR3 were stimulated with 50 [M LPA for 24 to 48 hours. Alternatively, adenovirus-transduced SKOV3 and OVCAR3 were seeded onto confluent monolayers or cocultured with Meso301 for 24 to 48 hours. MCP-1 protein secreted in the conditioned medium (CM) of SKOV3 and OVCAR3 was determined by ELISA using a commercially available kit (RayBioTech, Inc., Norcross, Ga.). Controls included cells that were not stimulated (NS) with LPA.
Experimental for MMP-2 and MMP-9: Subconfluent monolayers of ovarian cancer cells, transduced or not with Ad-GFP and Ad-GFP-SPARC, were grown in six-well plates alone or in coculture with mesothelial cell monolayers and serum-starved in SFM overnight. U937 macrophages (2×10^6 cells/ml SFM) were cultured in 0.22-μm transwell chambers (Corning, Costar) alone, in cocultures without direct cell-cell contact with ovarian cancer cells, or in triple cultures with ovarian cancer cells and mesothelial cells for an additional 24 hours. LPA (50 μM) or exogenous SPARC (20 μg/ml) (SOURCE?) was included in some experiments. Cell culture conditioned media (CM) were collected, cleared by centrifugation, and concentrated five-fold using Centricon centrifugal filters (Millipore, Bedford, Mass.). […] CM equivalent to 200 μg of ovarian cancer cells, and/or U937 cells was analyzed by gelatin zymography as described previously (Said et al., Am J Pathol, 167: 1739-52 (2005)).
Experimental for PGE2: LPA (50 μM) or exogenous SPARC (20 μg/ml) (SOURCE?) was included in some experiments.
SKOV3 and OVCAR3 cells were treated as described in Example 6, and PGE2 level was determined in the CM using a commercially available enzyme immunoassay kit (Cayman Inc.) according to the manufacturer's instructions.
Experimental for uPA: uPA activity in CM of confluent monolayers (˜10^6 cells) of serum-starved SKOV3 and OVCAR3 was measured in WT cells stimulated for 24 hours with LPA (50 μM) in the presence and absence of SPARC (10 μg/ml). uPA activity in adenovirus-transduced SKOV3 and OVCAR3 stimulated or not with LPA, or cocultured with Meso301 monolayers, U937 macrophages (added in 0.22-μm transwell inserts), or in triple-culture systems was also measured. uPA activity in CM was measured using a commercially available colorimetric assay kit (Chemicon) according to the manufacturer's instructions. […] The results are mean±SEM of a representative of three independent experiments, each performed in duplicate. *P<0.05, compared to nonstimulated WT or Ad-GFP cells. **P<0.05, compared to matched WT or Ad-GFP condition. #P<0.05, compared to coculture of ovarian cancer cells with either Meso301 or U937 in two-cell culture systems.

As for lysophosphatidic acid [LPA], the “increase in 8-isoprostane production by LPA stimulation” value was about 2.5 fold in the assay with 8-isoprostane (OVCAR) and about 2.2 fold in the assay with 8-isoprostane (SKOV3). Besides, the increase in PGE2 production by LPA stimulation with PGE2 (SKOV3 and OVCAR) worked out at 14 fold. Further, the “levels of active MMP-9 after LPA stimulation” value with MMP-2 and MMP-9 (OVCAR3 CM, LPA 50 μM) was “significantly increased”. The “levels of pro- and active MMP-9 after LPA stimulation” value in the assay on MMP-2 and MMP-9 (SKOV3 CM, LPA 50 μM) is “significantly increased”. Also, the “MMP-2 and MMP-9 activity after LPA” value in the assay on MMP-2 and MMP-9 (U937 CM, LPA 50 μM) is on record as “significantly increased”. The “increase of MCP-1 production after LPA stimulation” value in the assay with MCP-1 (SKOV3 and OVCAR3, 48 hours) is recorded as “nine”. The “LPA-induced increase in uPA activity” value was 4.5 fold in the assay on uPA (WT and Ad-GFP-transduced OVCAR3, LPA 50 μM); 4 fold in the assay with uPA (WT and Ad-GFP-transduced SKOV3, LPA 50 μM).
Regarding `CCCCC[C@H](O)/C=C/[C@H]1[C@H](O)CC(=O)[C@@H]1C/C=C\CCCC(=O)O` [PGE2, prostaglandin E2], the “PGE2-induced NF-κB activation” value in the assay with NF-κB promoter is given as “approximately three”. Moreover, the “proinvasive effect of PGE2” value with OVCAR3 [1] and in the assay with SKOV3 [2] was “concentration dependent” throughout. The PGE2-stimulated proliferation result with OVCAR3 [3] and with SKOV3 [4] was “concentration dependent” throughout.

B1: Secreted protein acidic and rich in cysteine (protein, listed as Homo sapiens)
chain: APQQEALPDETEVVEETVAEVTEVSVGANPVQVEVGEFDDGAEETEEEVVAENPCQNHHCKHGKVCELDENNTPMCVCQDPTSCPAPIGEFEKVCSNDNKTFDSSCHFFATKCTLEGTKKGHKLHLDYIGPCKYIPPCLDSELTEFPLRMRDWLKNVLVTLYERDEDNNLLTEKQKLRVKKIHENEKRLEAGDHPVELLARDFEKNYNMYIFPVHWQFGQLDQHPIDGYLSHTELAPLRAPLIPMEHCTTRFFETCDLDNDKYIALDEWAGCFGIKQKDIDKDLVI
notes: matrix-associated protein added to cultures at 10 or 20 μg/ml
As for B1, the “suppression of LPA-induced 8-isoprostane production” value in the assay with 8-isoprostane (setting [5]) is “up to 26%”. Further, the “decrease of basal 8-isoprostane (ROS) production” value in the assay with 8-isoprostane (serum starved SKOV3 and OVCAR3) stood at 70%. Besides, the “suppression of LPA-induced PGE2 production” value in the assay on PGE2 (setting [5]) stood at 40%. Further, the “decrease of baseline production of PGE2” value with PGE2 (serum-starved SKOV3 and OVCAR3) is on record as “up to 30%”. For the same molecule, the “LPA-induced activity of MMP-2 and MMP-9” value in the assay with MMP-2 and MMP-9 (U937 CM, SPARC 20 μg/ml) is “markedly decreased”. In addition, in the assay on IL-6, the “effect on IL-6 levels” value is listed as “Neither exogenous SPARC nor overexpression of SPARC in U937 had any effect”. The “inhibition of LPA-induced MCP-1 production” value in the assay on MCP-1 (OVCAR3, 24 hours) is listed as 59%; in the assay with MCP-1 (OVCAR3, 48 hours) it was 30%; with MCP-1 (SKOV3, 24 hours), 54%; with MCP-1 (SKOV3, 48 hours), 43%. In addition, the “attenuation of constitutive uPA activity in CM” value with uPA (OVCAR3) turned out to be 29%; in the assay with uPA (SKOV3), 40%. The “inhibition of LPA-induced uPA activity” value amounted to 36% in the assay on uPA (OVCAR3, LPA 50 μM) and 76% in the assay with uPA (SKOV3, LPA 50 μM).
